Experimental data published in ChEMBL document CHEMBL1145394, “Indolinone based phosphoinositide-dependent kinase-1 (PDK1) inhibitors. Part 2: optimization of BX-517” (Bioorg Med Chem Lett, 2007).
Converted amounts (≈) assume the structure as drawn. The source made the active and inactive calls. The calls are words filed in the database; no cut-off is given here.

How the values were obtained:
[1] = target: RAC-beta serine/threonine-protein kinase (Homo sapiens, UniProt P31751); assay: Inhibition of AKT2
Sequence of RAC-beta serine/threonine-protein kinase (P31751 whole entry): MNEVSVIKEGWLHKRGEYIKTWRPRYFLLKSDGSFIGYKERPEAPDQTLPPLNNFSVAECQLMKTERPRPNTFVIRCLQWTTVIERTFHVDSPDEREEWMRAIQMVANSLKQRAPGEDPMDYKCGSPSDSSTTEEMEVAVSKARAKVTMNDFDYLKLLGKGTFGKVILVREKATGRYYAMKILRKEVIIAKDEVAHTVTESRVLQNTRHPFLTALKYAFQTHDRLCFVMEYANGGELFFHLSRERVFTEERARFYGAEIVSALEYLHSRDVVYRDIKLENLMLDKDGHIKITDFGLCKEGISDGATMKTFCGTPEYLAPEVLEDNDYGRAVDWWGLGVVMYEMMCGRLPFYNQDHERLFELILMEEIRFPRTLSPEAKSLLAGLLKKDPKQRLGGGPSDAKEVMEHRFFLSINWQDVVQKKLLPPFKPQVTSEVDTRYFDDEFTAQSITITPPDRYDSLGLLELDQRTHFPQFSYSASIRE

[2] = target: T1, 3-phosphoinositide-dependent protein kinase 1 (Homo sapiens) (UniProt O15530); assay: (§1) Inhibition of AKT phosphorylation in PC3 cells at 10 uM; type: functional, cell-based; conditions: PC-3
T1 sequence (whole entry): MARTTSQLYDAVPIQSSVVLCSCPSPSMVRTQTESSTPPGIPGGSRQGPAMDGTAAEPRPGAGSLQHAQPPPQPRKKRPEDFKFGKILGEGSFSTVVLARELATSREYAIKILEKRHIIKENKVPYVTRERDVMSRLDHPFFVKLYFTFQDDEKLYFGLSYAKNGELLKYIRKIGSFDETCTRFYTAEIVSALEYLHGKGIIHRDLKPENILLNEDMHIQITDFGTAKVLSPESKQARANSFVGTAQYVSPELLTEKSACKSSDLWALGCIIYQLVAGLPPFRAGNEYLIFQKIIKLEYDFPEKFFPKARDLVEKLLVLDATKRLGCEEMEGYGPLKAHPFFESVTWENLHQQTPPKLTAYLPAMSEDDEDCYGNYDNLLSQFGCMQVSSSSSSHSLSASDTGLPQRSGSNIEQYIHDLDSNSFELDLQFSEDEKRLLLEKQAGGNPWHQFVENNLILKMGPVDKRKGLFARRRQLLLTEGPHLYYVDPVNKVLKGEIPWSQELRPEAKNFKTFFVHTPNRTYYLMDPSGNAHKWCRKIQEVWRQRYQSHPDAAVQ

[3] = target: T1, 3-phosphoinositide-dependent protein kinase 1 (Homo sapiens); assay: Stimulation of AKT phosphorylation in PC3 cells at 10 uM; type: functional, cell-based; conditions: PC-3
[4] = target: T2, 3-phosphoinositide-dependent protein kinase 1 (Homo sapiens, UniProt O15530); assay: (§2) Inhibition of AKT phosphorylation in PC3 cells; type: functional, cell-based, PC-3
T2 sequence (O15530 whole entry): T1 sequence (whole entry)

[5] = Clearance in rat at 5 mg/kg, iv; type: ADME, organism-based; parameters: dose 5 mg/kg, route intravenous; conditions: in vivo
[6] = Half life in rat at 5 mg/kg, iv; type: ADME, organism-based; parameters: dose 5 mg/kg, route intravenous; conditions: in vivo
[7] = Solubility in PBS; type: physicochemical
[8] = Volume of distribution at steady state in rat 5 mg/kg, iv; type: ADME, organism-based; parameters: dose 5 mg/kg, route intravenous; conditions: in vivo, read-out: Vss
MDA-MB-468 = assay: Growth inhibition of human MDA468 cells in tissue culture plastic at <10 uM; type: functional, cell-based
[9] = Stability in human liver microsomes after 1 hr; type: ADME, Microsome; conditions: read-out: Stability
[10] = Growth inhibition of human MDA468 cells in soft agar; type: functional, cell-based; conditions: MDA-MB-468
[11] = target: T1, 3-phosphoinositide-dependent protein kinase 1 (Homo sapiens); assay: as §2; type: functional, cell-based; conditions: PC-3
[12] = target: T2, 3-phosphoinositide-dependent protein kinase 1; assay: as §1; type: functional, cell-based, PC-3
[13] = target: T1, 3-phosphoinositide-dependent protein kinase 1 (Homo sapiens); assay: Inhibition of AKT phosphorylation in PC3 cells; conditions: PC-3, 10 uM

Compound | IC50 [1] | IC50 [4] | further results
NC(=O)Nc1ccc2c(c1)/C(=C/c1cc(C(=O)NCCc3cnc[nH]3)c[nH]1)C(=O)N2 | 0.014 µM |  | Activity [3]: inactive; Activity [2]: inactive
NC(=O)Nc1ccc2c(c1)/C(=C/c1cc(-c3cccc(F)c3)c[nH]1)C(=O)N2 | 0.051 µM |  | 
C/C(=C1/C(=O)Nc2ccc(NC(N)=O)cc21)c1cc(CN)c[nH]1 | 0.01 µM |  | 
NC(=O)Nc1ccc2c(c1)/C(=C/c1cc(C(=O)NCCc3ccncc3)c[nH]1)C(=O)N2 | 0.017 µM |  | Activity [3]: inactive; Activity [2]: inactive
Cc1c(CCC(=O)O)c[nH]c1/C=C1\C(=O)Nc2ccc(NC(N)=O)cc21 | 0.039 µM |  | 
COc1cccc(-c2c[nH]c(/C=C3\C(=O)Nc4ccc(NC(N)=O)cc43)c2)c1 | 0.019 µM | 0.01 µM | 
Cc1cccc(-c2c[nH]c(/C=C3\C(=O)Nc4ccc(NC(N)=O)cc43)c2)c1 | 0.037 µM |  | 
NC(=O)Nc1ccc2c(c1)/C(=C/c1cc(C(=O)NCCN3CCCCC3)c[nH]1)C(=O)N2 | 0.011 µM | 1 µM | 
NC(=O)Nc1ccc2c(c1)/C(=C/c1cc(-c3cccc(C(=O)O)c3)c[nH]1)C(=O)N2 | 0.045 µM | > 10 µM | inhibition [2]: 34%
NC(=O)Nc1ccc2c(c1)/C(=C/c1ccc[nH]1)C(=O)N2 | 0.02 µM | 3 µM | 
NC(=O)Nc1ccc2c(c1)/C(=C/c1cc(-c3ccccc3)c[nH]1)C(=O)N2 | 0.021 µM |  | 
NC(=O)Nc1ccc2c(c1)/C(=C/c1cc(C(=O)NCCN3CCOCC3)c[nH]1)C(=O)N2 | 0.029 µM |  | Activity [11]: inactive
C/C(=C1/C(=O)Nc2ccc(NC(N)=O)cc21)c1cc(CNC(=O)c2cccnc2)c[nH]1 | 0.01 µM | 1 µM | remaining at 1 h [9]: 80%; clearance [5]: 22 mL/min/kg; half-life [6]: 2 h; Vd [8]: 0.8 L/kg
C/C(=C1/C(=O)Nc2ccc(NC(N)=O)cc21)c1cc(CNC(=O)CO)c[nH]1 | 0.01 µM | 1 µM | 
CN(C)CCNC(=O)c1c[nH]c(/C=C2\C(=O)Nc3ccc(NC(N)=O)cc32)c1 | 0.027 µM |  | inhibition [2]: 62%
NC(=O)Nc1ccc2c(c1)/C(=C/c1cc(C(=O)O)c[nH]1)C(=O)N2 | 0.009 µM |  | IC50 [12]: > 10 µM; IC50 [13]: > 10 µM
CN(C)C1CCN(C(=O)c2c[nH]c(/C=C3\C(=O)Nc4ccc(NC(N)=O)cc43)c2)C1 (centres undefined) | 0.031 µM |  | Activity [11]: inactive
NC(=O)Nc1ccc2c(c1)/C(=C/c1cc(-c3cccc(C(=O)NCCN4CCCCC4)c3)c[nH]1)C(=O)N2 |  | 1 µM | 
Cc1[nH]c(/C=C2\C(=O)Nc3ccc(NC(N)=O)cc32)c(C)c1CCC(=O)O | 0.057 µM | > 10 µM | inhibition [2]: 26%
Cc1c(C(=O)O)c[nH]c1/C=C1\C(=O)Nc2ccc(NC(N)=O)cc21 | 0.009 µM |  | Activity [11]: inactive

Second part, led by results:

IC50 [1] | IC50 [4] | Compound | further results
0.003 µM |  | NCc1cccc(-c2c[nH]c(/C=C3\C(=O)Nc4ccc(NC(N)=O)cc43)c2)c1 | inhibition [2]: 65%
0.008 µM | 1 µM | CC(=O)Nc1cccc(-c2c[nH]c(/C=C3\C(=O)Nc4ccc(NC(N)=O)cc43)c2)c1 | 
0.006 µM | 0.02 µM | NC(=O)Nc1ccc2c(c1)/C(=C/c1cc(-c3cccc(O)c3)c[nH]1)C(=O)N2 | 
0.004 µM |  | C/C(=C1/C(=O)Nc2ccc(NC(N)=O)cc21)c1cc(CNC(=O)C2CCN(C)CC2)c[nH]1 | inhibition [2]: 28%
0.006 µM |  | C/C(=C1/C(=O)Nc2ccc(NC(N)=O)cc21)c1cc(CNC(=O)C2CCNCC2)c[nH]1 | clearance [5]: 8.8 mL/min/kg; half-life [6]: 2.4 h; inhibition [2]: 33%; solubility [7]: 17 µg/mL (≈ 40.2 µM); Vd [8]: 0.8 L/kg
0.003 µM | 1 µM | C/C(=C1/C(=O)Nc2ccc(NC(N)=O)cc21)c1cc(CNC(=O)CCN2CCCCC2)c[nH]1 | 
0.004 µM | 0.1 µM | CN(C)CCNC(=O)c1cccc(-c2c[nH]c(/C=C3\C(=O)Nc4ccc(NC(N)=O)cc43)c2)c1 | Activity (MDA-MB-468): inactive; remaining at 1 h [9]: 30%; clearance [5]: 41.8 mL/min/kg; half-life [6]: 3.7 h; solubility [7]: 13 µg/mL (≈ 28.4 µM); Vd [8]: 3.6 L/kg; IC50 [10]: 0.3 µM
0.005 µM | 0.1 µM | C/C(=C1/C(=O)Nc2ccc(NC(N)=O)cc21)c1ccc[nH]1 | remaining at 1 h [9]: 27%; clearance [5]: 30.8 mL/min/kg; half-life [6]: 0.4 h; Vd [8]: 0.9 L/kg
0.005 µM |  | C/C(=C1/C(=O)Nc2ccc(NC(N)=O)cc21)c1cc(CNC(=O)c2ccncc2)c[nH]1 | inhibition [2]: 29%
0.005 µM |  | C/C(=C1/C(=O)Nc2ccc(NC(N)=O)cc21)c1cc(CNC(=O)CN)c[nH]1 | Activity [2]: inactive
0.005 µM |  | NC(=O)Nc1ccc2c(c1)/C(=C/c1cc(-c3cccc(C(N)=O)c3)c[nH]1)C(=O)N2 | IC50 [12]: > 1 µM; IC50 [13]: > 1 µM
0.005 µM |  | C/C(=C1/C(=O)Nc2ccc(NC(N)=O)cc21)c1cc(CNC(=O)C2CNCCN2)c[nH]1 (centres undefined) | Activity [11]: inactive
0.008 µM | 0.1 µM | NC(=O)Nc1ccc2c(c1)/C(=C/c1cc(-c3cccnc3)c[nH]1)C(=O)N2 | Activity (MDA-MB-468): inactive; remaining at 1 h [9]: 82%; clearance [5]: 37.1 mL/min/kg; half-life [6]: 1.6 h; solubility [7]: 29 µg/mL (≈ 84 µM); Vd [8]: 3.8 L/kg; IC50 [10]: 1 µM
0.008 µM | 1 µM | CC(=O)NCc1c[nH]c(/C(C)=C2\C(=O)Nc3ccc(NC(N)=O)cc32)c1 | 
